Data from patent US20180057547A1, “DIAGNOSTIC AND THERAPEUTIC EPITOPE, AND TRANSGENIC PLANT” (OXFORD UNIVERSITY INNOVATION LIMITED, priority 1999, published 2018).
“Also recorded” adds a separate entry of the source.

Assays:
[1] = system: PBMC from coeliac subjects; test: IFNγ ELISPOT with PBMC of coeliac disease subjects after bread/gluten challenge; format: cell-based, human; conditions: for % bioactivity compared to unmodified A-gliadin 57-73 QE65 / greater bioactivity than the parent peptide: 50 mcg/ml; for % bioactivity compared to unmodified A-gliadin 57-73 QE65: PBMC from 8 subjects, mean response as % A-G 57-73 QE65 mean response, blank 7.1%; for Mean response as % of the response to the immunodominant epitope: 57-73 A-gliadin epitope substituted at position 65, synthetic peptides 50 μg/ml, 3 coeliac subjects, 6 days after commencing gluten challenge; for % agonist.: agonist activity compared to A-gliadin 57-73 QE65 as shown in Table 9; for ELISpot response as % A-gliadin 57-73 QE65, E-substituted: glutamate-substituted peptide; for ELISpot response as % A-gliadin 57-73 QE65, E-substituted / ELISpot response as % A-gliadin 57-73 QE65, Wildtype + tTG / ELISpot response as % A-gliadin 57-73 QE65, Wild type: 25 mcg/ml, 4 subjects, blank 5 (1) %; for ELISpot response as % A-gliadin 57-73 QE65, Wildtype + tTG: tTG-treated wild type peptide; for ELISpot response as % A-gliadin 57-73 QE65, Wild type: unmodified gliadin peptide; for Elisopt response TG: peptide treated with transglutaminase; for Elisopt response TG / Elisopt response No TG: mean (range), 3 subjects, as in Example 2; for Elisopt response No TG: peptide without transglutaminase treatment; for greater bioactivity than the parent peptide: parent A-gliadin 57-73 QE65
[2] = system: PBMC from coeliac volunteers; test: Antagonism of A-gliadin 57-73 QE65 interferon gamma ELISPOT response (simultaneous addition of peptide); format: cell-based, human
Description: Simultaneous addition of peptide (50 μg/ml) or buffer and A-gliadin 57-73 QE65 (10 μg/ml) in IFNgamma ELISPOT using PBMC from coeliac volunteers 6 days after commencing 3 day gluten challenge (n=5). Results were expressed as response with peptide plus A-G 57-73 QE65 (mean of duplicates) as % response with buffer plus A-G 57-73 QE65 (mean of 20 replicates). (See Table 9).

[3] = system: gluten-specific T cell clones and lines; conditions: from original publications; iTCC intestinal T cell clone, iTCL intestinal polyclonal T cell line, bTCC peripheral blood T cell clone; NS not given; cited from earlier work
[4] = system: PBMC from newly diagnosed coeliac subjects; test: Interferon gamma ELISpot with PBMC of newly diagnosed coeliac subjects, gluten challenge after short GFD; format: cell-based, human; conditions: 25 mcg/ml
Description: Newly diagnosed DQ2+ coeliac subjects were recruited from the gastroenterology outpatient service. PBMC were prepared and tested in interferon gamma ELISpot assays before subjects commenced GFD, and at one or two weeks after commencing GFD. In addition, gluten challenge (3 days consuming 4 slices standard white bread, 200 g/day) was performed at one or two weeks after starting GFD. PBMC were prepared and assayed on day six are after commencing gluten challenge. A-gliadin 57-73 QE65 (A), P04724 84-100 QE92 (B) (alone and combined) and A-gliadin 57-73 QP65 (P65) (non-bioactive variant, see above) (all 25 mcg/ml) were assessed.

[5] = substituted variant 50 μg/ml plus A-gliadin 57-73 QE65 10 μg/ml, n=5
[6] = coeliacs who had followed GFD for only one week
[7] = gluten challenge 2 weeks after commencing GFD, compared with A-gliadin 57-73 QP65 and blank
[8] = naturally occurring polymorphisms of A-gliadin 57-73 QE65, 50 μg/ml plus A-gliadin 57-73 QE65 10 μg/ml

N[C@@H](CS)C(=O)O [C65]
% bioactivity compared to unmodified A-gliadin 57-73 QE65 [1]: 42%
Mean response as % of the response to the immunodominant epitope [1]: 62%

N[C@@H](CC(=O)O)C(=O)O [D65]
% bioactivity compared to unmodified A-gliadin 57-73 QE65 [1]: 95%
Mean response as % of the response to the immunodominant epitope [1]: 65%

N[C@@H](Cc1c[nH]cn1)C(=O)O [H65]
% Inhibit. of A-gliadin 57-73 QE65 interferon gamma ELISpot response [2, 5]: 20%
% bioactivity compared to unmodified A-gliadin 57-73 QE65 [1]: 26%
Mean response as % of the response to the immunodominant epitope ([1]; listed as Histidine): 8%
% agonist. [1]: 16%

NCCCC[C@H](N)C(=O)O [K65]
% Inhibit. of A-gliadin 57-73 QE65 interferon gamma ELISpot response [2, 5]: 15%
% bioactivity compared to unmodified A-gliadin 57-73 QE65 [1]: 8%
Mean response as % of the response to the immunodominant epitope ([1]; listed as Lysine): 4%
% agonist. [1]: 8%

CC(C)C[C@H](N)C(=O)O [L65]
% Inhibit. of A-gliadin 57-73 QE65 interferon gamma ELISpot response [2, 5]: 20%
% bioactivity compared to unmodified A-gliadin 57-73 QE65 [1]: 16%
Mean response as % of the response to the immunodominant epitope [1]: 33%
% agonist. [1]: 26%

N=C(N)NCCC[C@H](N)C(=O)O [R65]
% Inhibit. of A-gliadin 57-73 QE65 interferon gamma ELISpot response [2, 5]: 13%
% bioactivity compared to unmodified A-gliadin 57-73 QE65 [1]: 11%
Mean response as % of the response to the immunodominant epitope ([1]; listed as Arginine): 1%
% agonist. [1]: 11%

C[C@@H](O)[C@H](N)C(=O)O [T65]
% Inhibit. of A-gliadin 57-73 QE65 interferon gamma ELISpot response [2, 5]: 28%
% bioactivity compared to unmodified A-gliadin 57-73 QE65 [1]: 7%
Mean response as % of the response to the immunodominant epitope [1]: 55%
% agonist. [1]: 19%

N[C@@H](Cc1ccc(O)cc1)C(=O)O [Y65]
% Inhibit. of A-gliadin 57-73 QE65 interferon gamma ELISpot response [2, 5]: 12%
Mean response as % of the response to the immunodominant epitope ([1]; listed as Tyrosine): 8%
% agonist. [1]: 7%

GQQGYYPTSPQQSGQ
Frequency [3]: 1/1 (iTCC)

LGQQQPFPPQQPYPQPQPF
Frequency [3]: 1/23 (bTCC)

PQLPYPQPELPYPQPQP [P04724 84-100 QE92, glutamate-substituted polymorphism GDA4_WHEAT P04724 84-100 (K)]
responses after gluten challenge [4, 6]: did not substantially enhance responses
responses after gluten challenge [4, 7]: did induce responses
ELISpot response as % A-gliadin 57-73 QE65, E-substituted [1]: 69 (20) %
ELISpot response as % A-gliadin 57-73 QE65, Wildtype + tTG [1]: 80 (17) %
ELISpot response as % A-gliadin 57-73 QE65, Wild type [1]: 14 (4) %

PQLPYPQPQLPYPQPQP
Elisopt response TG [1]: 109 (41-152)
Elisopt response No TG [1]: 3 (0-7)

PQPELPYPQPELPY [reference compound]
Frequency [3]: 11/17 (iTCL)
ELISpot response as % A-gliadin 57-73 QE65, E-substituted [1]: 48 (9) %
ELISpot response as % A-gliadin 57-73 QE65, Wildtype + tTG [1]: 53 (8) %
ELISpot response as % A-gliadin 57-73 QE65, Wild type [1]: 13 (6) %

PQPQPFLPELPYPQPQS [P04727 79-95 QE65, glutamate-substituted polymorphism GDA7_WHEAT P04727 79-95 (M)]
% Inhibit. of A-gliadin 57-73 QE65 interferon gamma ELISpot response [2, 8]: 6%

PQPQPFLPQLPYPQPQS
Elisopt response TG [1]: 21 (11-33)
Elisopt response No TG [1]: 10 (0-30)

PQPQPFPPELPYPQPPP [P04726 82-98 QE90, glutamate-substituted polymorphism GDA6_WHEAT P04726 82-98 (P)]
% Inhibit. of A-gliadin 57-73 QE65 interferon gamma ELISpot response [2, 8]: 5%

PQPQPFPPELPYPQPQS [P04725 82-98 QE90, glutamate-substituted polymorphism GDA5_WHEAT P04725 82-98 (N)]
% Inhibit. of A-gliadin 57-73 QE65 interferon gamma ELISpot response [2, 8]: 19%

PQPQPFPPELPYPQTQP [P04723 77-93 QE85, glutamate-substituted polymorphism GDA3_WHEAT P04723 77-93 (O)]
% Inhibit. of A-gliadin 57-73 QE65 interferon gamma ELISpot response [2, 8]: 10%

PQPQPFPPQLPYPQPPP
Elisopt response TG [1]: 19 (11-33)
Elisopt response No TG [1]: 10 (0-30)

PQPQPFPPQLPYPQPQS
Elisopt response TG [1]: 24 (11-43)
Elisopt response No TG [1]: 17 (0-40)

QLQPFLQPELPYSQPQP [Q41509 77-93 QE85, glutamate-substituted polymorphism Q41509 77-93]
% Inhibit. of A-gliadin 57-73 QE65 interferon gamma ELISpot response ([2]; naturally occurring polymorphisms of A-gliadin 57-73 QE65, 50 μg/ml plus A-gliadin 57-73 QE65 10 μg/ml, polymorphism SEQ ID NO 71): 11%
% Inhibit. of A-gliadin 57-73 QE65 interferon gamma ELISpot response ([2]; naturally occurring polymorphisms of A-gliadin 57-73 QE65, 50 μg/ml plus A-gliadin 57-73 QE65 10 μg/ml, polymorphism SEQ ID NO 76): 6%

QLQPFLQPQLPYSQPQP
Elisopt response TG [1]: 3 (0-7)
Elisopt response No TG [1]: 0 (0-1)

QLQPFPQPELPYPQPQS (listed as Triticum sp.) [A-gliadin 57-73 QE65]
responses after gluten challenge [4, 6]: did not substantially enhance responses
responses after gluten challenge [4, 7]: did induce responses
Mean response as % of the response to the immunodominant epitope [1]: 100%
IFNγ ELISPOT response (result in words) ([1]; PBMC after 3 day bread/gluten challenge): induced maximal responses; also recorded: most potent gliadin peptide for induction of interferon gamma
ELISpot response as % A-gliadin 57-73 QE65, E-substituted [1]: 100%
Frequency ([1]; in vivo (gluten challenge), DQ2): 11/12 in vivo
Elisopt response TG [1]: 100 (100)
ELISpot response as % A-gliadin 57-73 QE65, Wildtype + tTG [1]: 87 (7) %
ELISpot response as % A-gliadin 57-73 QE65, Wild type [1]: 18 (7) %

QLQPFPQPELPYSQPQP [P02863 77-93 QE85, glutamate-substituted polymorphism GDA0_WHEAT P02863 77-93 (F)]
% Inhibit. of A-gliadin 57-73 QE65 interferon gamma ELISpot response [2, 8]: 6%

QLQPFPQPELSYSQPQP [Gliα 3-5 57-73 QE65, glutamate-substituted polymorphism Gli alpha 3,4, 5 57-73 (I)]
% Inhibit. of A-gliadin 57-73 QE65 interferon gamma ELISpot response [2, 8]: 7%

QLQPFPQPQLPYPQPQL
Elisopt response TG [1]: 83 (74-97)
Elisopt response No TG [1]: 19 (0-33)

QLQPFPQPQLPYPQPQP
Elisopt response TG [1]: 83 (61-113)
Elisopt response No TG [1]: 12 (0-20)

QLQPFPQPQLPYSQPQP
Elisopt response TG [1]: 53 (44-67)
Elisopt response No TG [1]: 5 (1-7)

QLQPFSQPQLPYSQPQP
Elisopt response TG [1]: 2 (0-7)
Elisopt response No TG [1]: 0 (0-0)

QPQPFPPPELPYPQTQP [Gliα 1,6 58-74 QE66, glutamate-substituted polymorphism Gli alpha 1, 6 58-74 (J)]
% Inhibit. of A-gliadin 57-73 QE65 interferon gamma ELISpot response [2, 8]: 11%

QQLPQPEQPQQSFPEQERPF [reference compound]
ELISpot response as % A-gliadin 57-73 QE65, E-substituted [1]: 10 (5) %
ELISpot response as % A-gliadin 57-73 QE65, Wildtype + tTG [1]: 18 (7) %
ELISpot response as % A-gliadin 57-73 QE65, Wild type [1]: 9 (3) %

QQYPSGEGSFQPSQENPQ [reference compound]
ELISpot response as % A-gliadin 57-73 QE65, E-substituted [1]: 14 (8) %
ELISpot response as % A-gliadin 57-73 QE65, Wildtype + tTG [1]: 9 (3) %
ELISpot response as % A-gliadin 57-73 QE65, Wild type [1]: 10 (3) %

Y61: A-gliadin 57-73 QE65 variant, Y at position 61 (QLQPYPQPELPYPQPQS)
% bioactivity compared to unmodified A-gliadin 57-73 QE65 [1]: 129%
greater bioactivity than the parent peptide [1]: 30%

Y70: A-gliadin 57-73 QE65 variant, Y at position 70 (QLQPFPQPELPYPYPQS)
% bioactivity compared to unmodified A-gliadin 57-73 QE65 [1]: 129%
greater bioactivity than the parent peptide [1]: 30%
